Data from BindingDB's records for doi:10.1124/jpet.300.1.305 (Merck Research Laboratories, 2002).
Square brackets hold non-standard residues; d marks the D form. Peptide text beside a SMILES is read from it. NMeR = CN[C@@H](CCCNC(=N)N)C(=O)O; Tle = CC(C)(C)[C@H](N)C(=O)O

Key:
[1] = target: Neurotensin receptor type 1 (Mus musculus, UniProt O88319)
[2] = target: Neurotensin receptor type 2 (Mus musculus, UniProt P70310)
Sequence of Neurotensin receptor type 2 (P70310 whole entry): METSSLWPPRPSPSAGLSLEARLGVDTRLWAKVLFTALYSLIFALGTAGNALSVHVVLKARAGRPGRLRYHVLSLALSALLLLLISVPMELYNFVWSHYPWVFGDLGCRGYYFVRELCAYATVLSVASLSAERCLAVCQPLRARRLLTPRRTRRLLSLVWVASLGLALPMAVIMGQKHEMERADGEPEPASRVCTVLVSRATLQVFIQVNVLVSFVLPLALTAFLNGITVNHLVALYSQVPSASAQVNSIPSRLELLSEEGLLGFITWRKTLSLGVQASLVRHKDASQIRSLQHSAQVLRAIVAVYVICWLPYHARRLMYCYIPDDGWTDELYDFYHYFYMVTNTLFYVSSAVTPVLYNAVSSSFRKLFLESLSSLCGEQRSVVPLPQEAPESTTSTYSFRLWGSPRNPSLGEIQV

Sequence of Neurotensin receptor type 1 (O88319 whole entry): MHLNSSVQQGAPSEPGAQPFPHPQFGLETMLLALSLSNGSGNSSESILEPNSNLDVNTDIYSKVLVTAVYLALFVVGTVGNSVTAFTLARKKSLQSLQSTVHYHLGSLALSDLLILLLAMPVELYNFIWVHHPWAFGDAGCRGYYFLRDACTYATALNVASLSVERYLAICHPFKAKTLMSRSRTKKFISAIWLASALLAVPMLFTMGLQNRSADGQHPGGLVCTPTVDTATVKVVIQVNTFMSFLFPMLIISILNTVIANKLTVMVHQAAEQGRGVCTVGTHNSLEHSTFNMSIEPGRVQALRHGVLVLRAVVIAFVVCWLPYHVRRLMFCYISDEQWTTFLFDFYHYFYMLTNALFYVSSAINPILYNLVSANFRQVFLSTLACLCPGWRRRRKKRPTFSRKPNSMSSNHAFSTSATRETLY

Q: How did the Ki [1] turn out when `CN[C@@H](CCCNC(=N)N)C(=O)N[C@@H](CCCCN)C(=O)N1CCC[C@H]1C(=O)N[C@@H](Cc1c[nH]c2ccccc12)C(=O)N[C@H](C(=O)N[C@@H](CC(C)C)C(=O)O)C(C)(C)C` (H-[NMeR]KPW[Tle]L-OH) was run?
A: 0.11 nM

Q: What about the Ki [2] of the same molecule?
A: 3.8 nM

Q: `CC1CN(C2CCC(C#N)(c3ccc(F)cc3)CC2)CCC1(C(=O)O)c1ccccc1` (stereo not given) [NSC_54385] was tested. Which Ki [2] did it give?
A: 17 nM

Q: With H-KNPYIL-OH [NSC_128644] as the molecule, how does the Ki [1] read?
A: 0.25 nM

Q: And the Ki [2]?
A: 7 nM
